In patent US20260199309A1, “COMPOUNDS FOR THE TREATMENT OF CENTRA NERVOUS SYSTEM DISORDERS” (Autifony Therapeutics Limited, priority 2022, published 2026):
pEC50: −log10 of the molar value. Like-named read-outs stand apart in the source and are kept apart here.

Target: T1, human Kv3.1 channels (hKv3.1) (Homo sapiens, UniProt P48547)
T1 construct: expressed in transfected cells
T1 sequence (P48547 1-511): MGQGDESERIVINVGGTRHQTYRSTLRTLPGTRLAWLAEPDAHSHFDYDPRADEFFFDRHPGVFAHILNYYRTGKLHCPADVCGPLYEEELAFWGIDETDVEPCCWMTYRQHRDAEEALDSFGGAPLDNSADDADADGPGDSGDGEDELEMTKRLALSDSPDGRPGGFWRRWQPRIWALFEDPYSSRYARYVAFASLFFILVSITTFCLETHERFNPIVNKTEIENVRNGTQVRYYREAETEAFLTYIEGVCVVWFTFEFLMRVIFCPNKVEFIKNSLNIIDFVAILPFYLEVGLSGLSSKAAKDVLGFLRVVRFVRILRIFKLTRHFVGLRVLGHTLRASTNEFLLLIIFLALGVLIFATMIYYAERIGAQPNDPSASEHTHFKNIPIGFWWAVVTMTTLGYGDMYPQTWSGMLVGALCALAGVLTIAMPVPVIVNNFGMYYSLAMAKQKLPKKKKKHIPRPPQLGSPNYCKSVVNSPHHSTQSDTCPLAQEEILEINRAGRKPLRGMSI
Experiment: Kv3.1 channel modulation, IonWorks Quattro planar array electrophysiology
Format: cell-based
Conditions: for Kv3.1 pEC50 / EC50 / Kv3.1 max R %: HEK-293 cells expressing human Kv3.1; for Kv3.1 pEC50 / EC50: currents at −15 mV voltage step, normalised to 50 microM reference compound and vehicle; for EC50: read-out: Kv3.1 pEC50 (converted); for Kv3.1 max R %: normalised to maximum effect of 50 microM reference compound

SMILES	Kv3.1 pEC50	EC50 [nM]	Kv3.1 max R % [%]	pEC50
CC[C@H]1NC(=O)N(c2ccc(Oc3ccc(C)c4c3C3(CC3)CO4)nc2N)C1=O [Example 2, (5R)-3-[2-amino-6-(7-methylspiro[2H-benzofuran-3,1′-cyclopropane]-4-yl)oxy-3-pyridyl]-5-ethyl-imidazolidine-2,4-dione]	6.3	501	161	–
CC1(C)NC(=O)N(c2ccc(Oc3cccc4c3C3(CC3)CO4)nc2N)C1=O [Example 3, 3-(2-amino-6-spiro[2H-benzofuran-3,1′-cyclopropane]-4-yloxy-3-pyridyl)-5,5-dimethyl-imidazolidine-2,4-dione]	6.3	501	159	–
CC[C@H]1NC(=O)N(c2ccc(Oc3cccc4c3C3(CC3)CO4)nc2N)C1=O [Example 4, (5R)-3-(2-amino-6-spiro[2H-benzofuran-3,1′-cyclopropane]-4-yloxy-3-pyridyl)-5-ethyl-imidazolidine-2,4-dione]	6.0	1000	159	–
CC1(C)NC(=O)N(c2ccc(Oc3cccc4c3C(C)(C)CO4)nc2N)C1=O [Example 5, 3-[2-amino-6-[(3,3-dimethyl-2H-benzofuran-4-yl)oxy]-3-pyridyl]-5,5-dimethyl-imidazolidine-2,4-dione]	–	631	152	–
COc1cccc(Oc2ccc(N3C(=O)NC(C)(C)C3=O)c(N)n2)c1 [Example 6, 3-[2-amino-6-(3-methoxyphenoxy)-3-pyridyl]-5,5-dimethyl-imidazolidine-2,4-dione]	–	12600	89	–
Cc1ccc(Oc2ccc(N3C(=O)NC(C)(C)C3=O)c(N)n2)cc1OC(F)(F)F [Example 7, 3-[2-amino-6-[4-methyl-3-(trifluoromethoxy)phenoxy]-3-pyridyl]-5,5-dimethyl-imidazolidine-2,4-dione]	5.6	2510	135	–
CC[C@H]1NC(=O)N(c2ccc(Oc3ccc(C)c(OC(F)(F)F)c3)nc2N)C1=O [Example 8, (5R)-3-[2-amino-6-[4-methyl-3-(trifluoromethoxy)phenoxy]-3-pyridyl]-5-ethyl-imidazolidine-2,4-dione]	5.5	3160	137	–
CC1(C)NC(=O)N(c2ccc(Oc3ccc(C#N)c(OC(F)(F)F)c3)nc2N)C1=O [Example 10, 4-[[6-amino-5-(4,4-dimethyl-2,5-dioxo-imidazolidin-1-yl)-2-pyridyl]oxy]-2-(trifluoromethoxy)benzonitrile]	5.6	2510	113	–
CC[C@H]1NC(=O)N(c2ccc(Oc3ccc(C#N)c(OC(F)(F)F)c3)nc2N)C1=O [Example 11, 4-[[6-amino-5-[(4R)-4-ethyl-2,5-dioxo-imidazolidin-1-yl]-2-pyridyl]oxy]-2-(trifluoromethoxy)benzonitrile]	5.5	3160	161	–
CC(C)c1cc(Oc2ccc(N3C(=O)NC(C)(C)C3=O)c(N)n2)ccc1C#N [Example 12, 4-[[6-amino-5-(4,4-dimethyl-2,5-dioxo-imidazolidin-1-yl)-2-pyridyl]oxy]-2-isopropyl-benzonitrile]	–	2000	175	–
CC[C@H]1NC(=O)N(c2ccc(Oc3ccc(C#N)c(C(C)C)c3)nc2N)C1=O [Example 13, 4-[[6-amino-5-[(4R)-4-ethyl-2,5-dioxo-imidazolidin-1-yl]-2-pyridyl]oxy]-2-isopropyl-benzonitrile]	5.5	3160	161	–
Cc1ccc(Oc2ccc(N3C(=O)NC(C)(C)C3=O)c(N)n2)c2c1OCC2(C)C [Example 14, 3-[2-amino-6-[(3,3,7-trimethyl-2H-benzofuran-4-yl)oxy]-3-pyridyl]-5,5-dimethyl-imidazolidine-2,4-dione]	–	501	165	–
Cc1ccc(Oc2ccc(N3C(=O)NC(C)(C)C3=O)cn2)c2c1OCC21CC1 [Reference Example 1, reference compound]	–	–	–	5.60
Cc1ccc(Oc2ccc(N3C(=O)NC(C)(C)C3=O)c(C)n2)c2c1OCC21CC1 [Reference Example 3, reference compound]	–	1580	–	–
CC1(C)NC(=O)N(c2ccc(Oc3cccc4c3C3(CC3)CO4)nc2)C1=O [Reference Example 4, reference compound]	–	31600	–	–
COc1nc(Oc2cccc3c2C2(CC2)CO3)ccc1N1C(=O)NC(C)(C)C1=O [Reference Example 5, reference compound]	–	3980	–	–
Cc1ccc(Oc2ccc(N3C(=O)NC(C)(C)C3=O)cn2)cc1OC(F)(F)F [Reference Example 6, reference compound]	–	–	–	5.00
COc1nc(Oc2ccc(C)c(OC(F)(F)F)c2)ccc1N1C(=O)NC(C)(C)C1=O [Reference Example 7, reference compound]	–	12600	–	–
Cc1ccc(Oc2ccc(N3C(=O)NC(C)(C)C3=O)c(C)n2)cc1OC(F)(F)F [Reference Example 8, reference compound]	–	6310	–	–
COc1nc(Oc2ccc(C#N)c(OC(F)(F)F)c2)ccc1N1C(=O)NC(C)(C)C1=O [Reference Example 9, reference compound]	–	12600	–	–
CC[C@H]1NC(=O)N(c2ccc(Oc3ccc(C)c4c3C3(CC3)CO4)nc2OC)C1=O [Reference Example 11, reference compound]	–	1260	–	–
CC[C@H]1NC(=O)N(c2ccc(Oc3ccc(C)c4c3C3(CC3)CO4)nc2C)C1=O [Reference Example 12, reference compound]	–	631	–	–
CC[C@H]1NC(=O)N(c2ccc(Oc3cccc4c3C3(CC3)CO4)nc2OC)C1=O [Reference Example 14, reference compound]	–	2000	–	–
CC[C@H]1NC(=O)N(c2ccc(Oc3ccc(C)c(OC(F)(F)F)c3)nc2)C1=O [Reference Example 15, reference compound]	–	2510	–	–
CC[C@H]1NC(=O)N(c2ccc(Oc3ccc(C)c(OC(F)(F)F)c3)nc2OC)C1=O [Reference Example 16, reference compound]	–	7940	–	–
CC[C@H]1NC(=O)N(c2ccc(Oc3ccc(C)c(OC(F)(F)F)c3)nc2C)C1=O [Reference Example 17, reference compound]	–	5010	–	–
CC[C@H]1NC(=O)N(c2ccc(Oc3ccc(C#N)c(OC(F)(F)F)c3)nc2OC)C1=O [Reference Example 18, reference compound]	–	10000	–	–
CC[C@H]1NC(=O)N(c2ccc(Oc3ccc(C#N)c(C(C)C)c3)nc2)C1=O [Reference Example 19, reference compound]	–	1260	–	–
